Tests used:
Format in all cases: cell-based
Enterobacter cloacae = test: MIC against Gram-negative bacteria: Enterobacter cloacae; settings: 5×10^5 CFU/mL; for MIC against E. cloacae: Enterobacter cloacae
Method in brief: (§1)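 MIC = lowest concentration of recombinant protein showing no growth. Test proteins: purified human-derived EGF domain proteins, two-fold dilution series, three wells per concentration; inoculum 5×10^5 CFU/mL in LB; incubation 37° C with shaking at 175 rpm.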

E. coli BL21 = test: MIC against Gram-negative bacteria: E. coli BL21; settings: 5×10^5 CFU/mL
Method in brief: as §1

Klebsiella pneumonia = test: MIC against Gram-negative bacteria: Klebsiella pneumonia; settings: 5×10^5 CFU/mL; for MIC against K. pneumonia: Klebsiella pneumonia
Method in brief: as §1

Citrobacter diversus = test: MIC against Gram-negative bacteria: Citrobacter diversus; settings: 5×10^5 CFU/mL; for MIC against C. diversus: Citrobacter diversus
Method in brief: as §1

Proteus mirabilis = test: MIC against Gram-negative bacteria: Proteus mirabilis; settings: 5×10^5 CFU/mL; for MIC against P. mirabilis: Proteus mirabilis
Method in brief: as §1

Pseudomonas aeruginosa = test: MIC against Gram-negative bacteria: Pseudomonas aeruginosa; settings: 5×10^5 CFU/mL; for MIC against P. aeruginosa: Pseudomonas aeruginosa
Method in brief: as §1

E. coli DH5α = test: Antibacterial activity: MIC and growth curve against E. coli DH5α in 96-well plate; settings: minimal inhibitory concentration against E. coli DH5α; 96-well plate, 5×10^5 CFU/mL, 37° C., judged after 8 h
Method in brief: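 MIC taken as lowest protein level with no bacterial growth, tracked by A600 every 30 min during 37 °C, 175 rpm culture. Two-fold protein series 50-12.5 μg/mL final, triplicate wells, against 5×10^5 CFU/mL of LB-washed mid-log cells.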

Serratia marcescens = test: MIC against Gram-negative bacteria: Serratia marcescens; settings: 5×10^5 CFU/mL; for MIC against S. marcescens: Serratia marcescens
Method in brief: as §1

Proteus vulgaris = test: MIC against Gram-negative bacteria: Proteus vulgaris; settings: 5×10^5 CFU/mL; for MIC against P. vulgaris: Proteus vulgaris
Method in brief: as §1

Moraxella catarrhalis = test: MIC against Gram-negative bacteria: Moraxella catarrhalis; settings: 5×10^5 CFU/mL; for MIC against M. catarrhalis: Moraxella catarrhalis
Method in brief: as §1

Aeromonas hydrophila = test: MIC against Gram-negative bacteria: Aeromonas hydrophila; settings: 5×10^5 CFU/mL; for MIC against A. hydrophila: Aeromonas hydrophila
Method in brief: as §1

## PRT156 (DINECDSNPCHHGGSCLDQPNGYNCHCPHGWVGANCE; listed as Homo sapiens)
Enterobacter cloacae; 10 h cultivation at 37° C.
  MIC (μg/mL) E. cloacae: 12.5 µg/mL
E. coli BL21; 10 h cultivation at 37° C.
  MIC (μg/mL) E. coli BL21: 12.5 µg/mL
Klebsiella pneumonia; 10 h cultivation at 37° C.
  MIC (μg/mL) K. pneumonia: 25 µg/mL
Citrobacter diversus; 10 h cultivation at 37° C.
  MIC (μg/mL) C. diversus: 12.5 µg/mL
Proteus mirabilis; 10 h cultivation at 37° C.
  MIC (μg/mL) P. mirabilis: 12.5 µg/mL
Pseudomonas aeruginosa; 10 h cultivation at 37° C.
  MIC (μg/mL) P. aeruginosa: 12.5 µg/mL
E. coli DH5α
  MIC: 25 µg/mL
Serratia marcescens; 10 h cultivation at 37° C.
  MIC (μg/mL) S. marcescens: 50 µg/mL
Proteus vulgaris; 10 h cultivation at 37° C.
  MIC (μg/mL) P. vulgaris: 50 µg/mL
Moraxella catarrhalis; 10 h cultivation at 37° C.
  MIC (μg/mL) M. catarrhalis: 50 µg/mL
Aeromonas hydrophila; 10 h cultivation at 37° C.
  MIC (μg/mL) A. hydrophila: 25 µg/mL

## PRT690 (EAEECGILDGCTNGRCVRVPEGFTCRCFDGYRLDMTRMACV; listed as Homo sapiens)
Enterobacter cloacae; 96-well plate, 37° C., 10 h
  MIC E. cloacae: 12.5 µg/mL
E. coli BL21; 96-well plate, 37° C., 10 h
  MIC E. coli BL21: 50 µg/mL
Klebsiella pneumonia; 96-well plate, 37° C., 10 h
  MIC K. pneumonia: 25 µg/mL
Citrobacter diversus; 96-well plate, 37° C., 10 h
  MIC C. diversus: 25 µg/mL
Proteus mirabilis; 96-well plate, 37° C., 10 h
  MIC P. mirabilis: 12.5 µg/mL
Pseudomonas aeruginosa; 96-well plate, 37° C., 10 h
  MIC P. aeruginosa: 25 µg/mL
E. coli DH5α
  MIC: 25 µg/mL
Serratia marcescens; 96-well plate, 37° C., 10 h
  MIC S. marcescens: 12.5 µg/mL
Proteus vulgaris; 96-well plate, 37° C., 10 h
  MIC P. vulgaris: 50 µg/mL
Moraxella catarrhalis; 96-well plate, 37° C., 10 h
  MIC M. catarrhalis: 50 µg/mL
Aeromonas hydrophila; 96-well plate, 37° C., 10 h
  MIC A. hydrophila: 25 µg/mL

## PRT1447 (GCGAGRWGPGCTKECPGCLHGGVCHDHDGECVCPPGFTGTRCE; listed as Homo sapiens)
Enterobacter cloacae; 10 h cultivation at 37° C.
  MIC against E. cloacae: 12.5 µg/mL
E. coli BL21; 10 h cultivation at 37° C.
  MIC against E. coli BL21: 25 µg/mL
Klebsiella pneumonia; 10 h cultivation at 37° C.
  MIC against K. pneumonia: 12.5 µg/mL
Citrobacter diversus; 10 h cultivation at 37° C.
  MIC against C. diversus: 12.5 µg/mL
Proteus mirabilis; 10 h cultivation at 37° C.
  MIC against P. mirabilis: 25 µg/mL
Pseudomonas aeruginosa; 10 h cultivation at 37° C.
  MIC against P. aeruginosa: 12.5 µg/mL
E. coli DH5α
  MIC: 100 µg/mL
Serratia marcescens; 10 h cultivation at 37° C.
  MIC against S. marcescens: 25 µg/mL
Proteus vulgaris; 10 h cultivation at 37° C.
  MIC against P. vulgaris: 12.5 µg/mL
Moraxella catarrhalis; 10 h cultivation at 37° C.
  MIC against M. catarrhalis: 50 µg/mL
Aeromonas hydrophila; 10 h cultivation at 37° C.
  MIC against A. hydrophila: 50 µg/mL

## PRT262 (CLIHHGGCHIHAECIPTGPQQVSCSCREGYSGDGIRTC; listed as Homo sapiens)
Enterobacter cloacae; 10 h cultivation at 37° C.
  MIC (μg/mL) E. cloacae: 12.5 µg/mL
E. coli BL21; 10 h cultivation at 37° C.
  MIC (μg/mL) E. coli BL21: 25 µg/mL
Klebsiella pneumonia; 10 h cultivation at 37° C.
  MIC (μg/mL) K. pneumonia: 25 µg/mL
Citrobacter diversus; 10 h cultivation at 37° C.
  MIC (μg/mL) C. diversus: 50 µg/mL
Proteus mirabilis; 10 h cultivation at 37° C.
  MIC (μg/mL) P. mirabilis: 12.5 µg/mL
Pseudomonas aeruginosa; 10 h cultivation at 37° C.
  MIC (μg/mL) P. aeruginosa: 50 µg/mL
E. coli DH5α
  MIC: 12.5 µg/mL
Serratia marcescens; 10 h cultivation at 37° C.
  MIC (μg/mL) S. marcescens: 12.5 µg/mL
Proteus vulgaris; 10 h cultivation at 37° C.
  MIC (μg/mL) P. vulgaris: 25 µg/mL
Moraxella catarrhalis; 10 h cultivation at 37° C.
  MIC (μg/mL) M. catarrhalis: 25 µg/mL
Aeromonas hydrophila; 10 h cultivation at 37° C.
  MIC (μg/mL) A. hydrophila: 25 µg/mL

## PRT1305 (SANACSAFKCHHGQCHISDQGEPYCLCQPGFSGEHCQ; listed as Homo sapiens)
Enterobacter cloacae; 96-well plate, 37° C., 10 h
  MIC against E. cloacae: 12.5 µg/mL
E. coli BL21; 96-well plate, 37° C., 10 h
  MIC against E. coli BL21: 50 µg/mL
Klebsiella pneumonia; 96-well plate, 37° C., 10 h
  MIC against K. pneumonia: 50 µg/mL
Citrobacter diversus; 96-well plate, 37° C., 10 h
  MIC against C. diversus: 12.5 µg/mL
Proteus mirabilis; 96-well plate, 37° C., 10 h
  MIC against P. mirabilis: 25 µg/mL
Pseudomonas aeruginosa; 96-well plate, 37° C., 10 h
  MIC against P. aeruginosa: 12.5 µg/mL
E. coli DH5α
  MIC: 12.5 µg/mL
Serratia marcescens; 96-well plate, 37° C., 10 h
  MIC against S. marcescens: 12.5 µg/mL
Proteus vulgaris; 96-well plate, 37° C., 10 h
  MIC against P. vulgaris: 25 µg/mL
Moraxella catarrhalis; 96-well plate, 37° C., 10 h
  MIC against M. catarrhalis: 50 µg/mL
Aeromonas hydrophila; 96-well plate, 37° C., 10 h
  MIC against A. hydrophila: 50 µg/mL
